Source: US20250032488A1, “METHODS OF TREATMENT USING LOU064” (NOVARTIS AG, priority 2021, published 2025)

Tests used:
BTK = molecular target: T1, BTK (Mus musculus, UniProt P35991); assay: BTK occupancy in spleen, PCA study; format: in vivo, mice; details: 2.5 hours after second oral dose, read-out: BTK occupancy in spleen relative to vehicle controls
T1 construct: each spleen was crushed and lysed in a GentleMACS; from tissue; host or cells: mouse spleen (BALB/c, C57Bl6) and lung (C57Bl6)
Protocol: The levels of BTK occupancy after dosing of LOU064 was determined in separate ELISAs for total BTK protein and for bound BTK (=free BTK).
Covalent binding of compounds to BTK was determined with immunoassays for free BTK (i.e., not covalently occupied by compound) and total BTK protein. For free BTK measurements, samples were incubated with a biotinylated covalent BTK probe (Pulz R et al, ACS Med. Chem. Lett. 2019, 10, 1467-1472) then samples were added to streptavidin ELISA plates to allow binding of probe-bound BTK. The binding of the probe to BTK is mutually exclusive with compound binding to BTK. Plate-bound BTK was detected with an anti-BTK antibody (D3H5, Cell Signaling Technology). For total BTK measurements, an ELISA plate was coated with D3H5 anti-BTK to capture total BTK. An anti-BTK antibody (no. 53, BD Biosciences) directed to a different epitope was then used to detect captured BTK. The respective free BTK levels for each sample were normalized to the total BTK level in the same sample, and these ratios were expressed as percentage of the vehicle control samples. […]
The relative BTK occupancy was calculated as the ratio of free BTK (signal of bound BTK) to total BTK for each sample: Ri=free BTK/total BTK. The individual Ri values were then normalized to the vehicle group and expressed as percent occupancy: (average of Ri vehicle group-Ri)/(average of Ri vehicle group)*100%

C57BI6 mice = assay: Reverse passive Arthus (RPA) reaction in mouse skin: skin swelling; format: in vivo; details: for Inhibition of the Arthus reaction (skin swelling): dosed 2 hours prior to induction, read at 3 hours
Protocol: The effect of a single dose of LOU064 was tested in the acute mouse reverse passive Arthus (RPA) model to assess its effect on a dermal anaphylaxis reaction triggered by IgG immune complexes and mediated by FcGRIIl on mast cell.
(§1) Female C57BI6 mice (Charles River, France), 8-10 weeks of age, were used. The back of the mice was shaved 24 hours prior to the skin injections. This allowed any potential irritation of the skin to resolve. The Arthus reaction was triggered two hours after compound dosing in the dose-response study or at the timepoints noted in the time-course study. To elicit the Arthus reaction, 50 μl of PBS (control site) or polyclonal rabbit anti-ovalbumin IgG at a concentration of 30 μg in PBS (C6534, Sigma) was injected i.d. into the dorsal skin. The intradermal injection was followed immediately by an i.v. injection of 200 μl ovalbumin (20 mg/kg) in saline (05450 Fluka). Three hours after the injection of the ovalbumin the mice were killed, bled for monitoring of the compound concentration and the spleens removed for BTK occupancy measurement. The thickness of the injected control and anti-ovalbumin IgG skin sites was measured using a digital caliper, and the thickness of the anti-ovalbumin IgG injected sites minus the saline control sites were then calculated for the mice in all treatment groups.

[1] = LOU064 levels in blood, RPA study; format: in vivo, mice
Protocol: as §1
Blood samples were taken as denoted and compound measurement was performed. Blood samples were spiked with a structurally similar internal standard mixed with acetonitrile (4 volumes) and centrifuged at ˜ 4000 rpm (4° C.). Supernatant was then transferred into a microtiter plate. An aliquot of each sample was injected into an LC-MS/MS system for determination of concentrations of the parent molecule.

PBMC-derived mast cells = assay: FcER-induced degranulation of PBMC-derived mast cells; format: cell-based; details: Homo sapiens, Mast cell; n=7 donors; read-out: IC50, degranulation of primary human PBMC-derived mast cells (β-tryptase)
Source text: cells (PBMC)-derived mast cells Rationale and method: Primary human mast cells were derived from CD34-positive progenitor cells isolated from PBMC ((Neuberger, M.S. et al. (1985), Nature 314 (6008), pp 268-70. doi: 10.1038/314268a0). Blood from healthy volunteers was provided under informed consent and collected through the Novartis Tissue Donor Program in accordance with the Swiss Human Research Act and approval of the responsible ethic committee (Ethikkommission Nordwest-und Zentralschweiz). Briefly, CD34-positive cells were isolated from peripheral blood by positive selection and cultured in medium containing SCF, IL-6 and IL-3. After a 6 week differentiation culture, mast cells were harvested and characterized phenotypically for expression of c-Kit (CD117) and FcERI. The degranulation is based on NIP haptenized BSA and the NIP-specific chimeric IgE antibody JW8 (described in RD-2013-00412). The mast cells were sensitized with JW8 IgE antibody and then incubated with serial compound dilutions for 30 minutes at 37° C. Then degranulation was triggered by adding haptenized NIP-BSA to crosslink the FcER. After one hour, supernatants were collected and analyzed for β-tryptase levels.

patients with CSU = assay: Phase 2b core study in CSU: safety; format: in vivo, human
[2] = Co-administration with oral contraceptives; format: in vivo
Source text: Therefore, in a preferred embodiment, LOU064 is co-administered with oral contraceptives.

healthy atopic subjects = details: doses of greater than or equal to 100 mg qd, MAD, across all tests; cited from earlier work
[3] = Core study, Any dose, N = 267, listed as remibrutinib

T1 sequence (P35991 whole entry): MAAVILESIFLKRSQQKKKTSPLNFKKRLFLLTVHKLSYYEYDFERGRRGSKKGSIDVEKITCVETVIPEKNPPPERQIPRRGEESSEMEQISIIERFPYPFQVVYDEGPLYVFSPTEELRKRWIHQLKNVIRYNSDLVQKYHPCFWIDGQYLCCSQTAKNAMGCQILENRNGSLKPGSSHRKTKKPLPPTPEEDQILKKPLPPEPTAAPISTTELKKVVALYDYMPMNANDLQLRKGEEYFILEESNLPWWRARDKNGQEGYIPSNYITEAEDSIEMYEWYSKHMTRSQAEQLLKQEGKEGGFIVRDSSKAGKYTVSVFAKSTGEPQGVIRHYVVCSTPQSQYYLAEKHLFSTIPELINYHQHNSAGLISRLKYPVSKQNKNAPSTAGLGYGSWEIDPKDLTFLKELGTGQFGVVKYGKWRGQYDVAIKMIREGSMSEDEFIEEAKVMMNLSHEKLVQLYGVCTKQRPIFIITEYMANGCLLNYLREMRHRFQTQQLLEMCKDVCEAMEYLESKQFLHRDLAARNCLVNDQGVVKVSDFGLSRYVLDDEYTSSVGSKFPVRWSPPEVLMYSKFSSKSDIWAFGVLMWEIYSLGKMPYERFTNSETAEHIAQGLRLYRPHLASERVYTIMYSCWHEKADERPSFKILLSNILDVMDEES

Compound: C=CC(=O)N(C)CCOc1c(N)ncnc1-c1cc(F)cc(NC(=O)c2ccc(C3CC3)cc2F)c1C [LOU064, N-(3-(6-amino-5-(2-(N-methylacrylamido)ethoxy)pyrimidin-4-yl)-5-fluoro-2-methylphenyl)-4-cyclopropyl-2-fluorobenzamide]
- receptor occupancy at 3 mg/kg (BTK): 89.1%
- Inhibition of skin swelling (time-course study) (C57BI6 mice; 30 mg/kg p.o., Arthus reaction elicited 2 hours post dosing): 65.7%
- Inhibition of the Arthus reaction (skin swelling) (C57BI6 mice; 30 mg/kg single p.o.): 73%
- Inhibition of the Arthus reaction (skin swelling) (C57BI6 mice; 100 mg/kg single p.o.): 61.2%
- Timepoint at which pharmacologic effect in the skin returned to vehicle levels (C57BI6 mice; single dose 30 mg/kg p.o.): ≤ 45 hours
- concentration at 5 h ([1]; female, C57BI6, mouse, whole blood, oral, 3 mg/Kg single p.o., 5 hours after dosing): 2.04 nM
- concentration at 5 h ([1]; female, C57BI6, mouse, whole blood, oral, 10 mg/Kg single p.o., 5 hours after dosing, Mean ± SD): 2.87 ± 0.58 nM
- concentration at 5 h ([1]; female, C57BI6, mouse, whole blood, oral, 30 mg/Kg single p.o., 5 hours after dosing, Mean ± SD): 25.2 ± 20.9 nM
- concentration at 5 h ([1]; female, C57BI6, mouse, whole blood, oral, 100 mg/Kg single p.o., 5 hours after dosing, Mean ± SD): 140 ± 63.9 nM
- concentration at 5 h ([1]; female, C57BI6, mouse, whole blood, single oral dose of 30 mg/kg, 5 hours post-dose, Mean ± SD (n = 5)): 28.4 ± 18.2 nM
- concentration at 8 h ([1]; female, C57BI6, mouse, whole blood, single oral dose of 30 mg/kg, 8 hours post-dose, Mean ± SD (n = 5)): 9.2 ± 6.7 nM
- Concentration in blood ([1]; single oral dose of 30 mg/kg, 19 hours post-dose): Below LLOQ
- IC50 (PBMC-derived mast cells): 5.7 nM
- Patients with newly occurring ALT>5xULN (patients with CSU; CS, normalised on treatment): 1 patient
- Patients with ≥1 AE (patients with CSU; Core study, 10 mg b.i.d., N = 44): 21 n
- Patients with ≥1 AE (patients with CSU; Core study, 10 mg q.d., N = 44): 29 n
- Patients with ≥1 AE (patients with CSU; Core study, 25 mg b.i.d., N = 43): 26 n
- Patients with ≥1 AE (patients with CSU; Core study, 35 mg q.d., N = 44): 23 n
- Patients with ≥1 AE (patients with CSU; Core study, 100 mg b.i.d., N = 45): 29 n
- Patients with ≥1 AE (patients with CSU; Core study, 100 mg q.d., N = 47): 27 n
- Headache (AEs by PT) (patients with CSU; [3]): 9.7%
- Infections and infestations (AEs by primary system organ class) (patients with CSU; [3]): 24.0%
- Skin and subcutaneous tissue disorders (AEs by primary system organ class) (patients with CSU; [3]): 16.9%
- Impact on exposure and efficacy of oral contraceptives (ethinylestradiol or levonorgestrel) [2]: without a major impact
- Average decrease in wheal size (SPT) (healthy atopic subjects): 3 mm
